In patent publication US20240083897A1, “GCN2 MODULATING COMPOUNDS AND USES THEREOF” (HiberCell, Inc., priority 2021, published 2024):
Counter-ions that a name gives are not always drawn. Like-named read-outs stand apart in the source and are kept apart here.

Target: GCN2 (Homo sapiens (Human), UniProt Q9P2K8)
Assay: TR-FRET biochemical assay for inhibition of GCN2
[1] = GCN2 2 nM, 100 nM GFP-eIF2a, 150 μM ATP, TR-FRET

Chain of GCN2 (Q9P2K8 whole entry): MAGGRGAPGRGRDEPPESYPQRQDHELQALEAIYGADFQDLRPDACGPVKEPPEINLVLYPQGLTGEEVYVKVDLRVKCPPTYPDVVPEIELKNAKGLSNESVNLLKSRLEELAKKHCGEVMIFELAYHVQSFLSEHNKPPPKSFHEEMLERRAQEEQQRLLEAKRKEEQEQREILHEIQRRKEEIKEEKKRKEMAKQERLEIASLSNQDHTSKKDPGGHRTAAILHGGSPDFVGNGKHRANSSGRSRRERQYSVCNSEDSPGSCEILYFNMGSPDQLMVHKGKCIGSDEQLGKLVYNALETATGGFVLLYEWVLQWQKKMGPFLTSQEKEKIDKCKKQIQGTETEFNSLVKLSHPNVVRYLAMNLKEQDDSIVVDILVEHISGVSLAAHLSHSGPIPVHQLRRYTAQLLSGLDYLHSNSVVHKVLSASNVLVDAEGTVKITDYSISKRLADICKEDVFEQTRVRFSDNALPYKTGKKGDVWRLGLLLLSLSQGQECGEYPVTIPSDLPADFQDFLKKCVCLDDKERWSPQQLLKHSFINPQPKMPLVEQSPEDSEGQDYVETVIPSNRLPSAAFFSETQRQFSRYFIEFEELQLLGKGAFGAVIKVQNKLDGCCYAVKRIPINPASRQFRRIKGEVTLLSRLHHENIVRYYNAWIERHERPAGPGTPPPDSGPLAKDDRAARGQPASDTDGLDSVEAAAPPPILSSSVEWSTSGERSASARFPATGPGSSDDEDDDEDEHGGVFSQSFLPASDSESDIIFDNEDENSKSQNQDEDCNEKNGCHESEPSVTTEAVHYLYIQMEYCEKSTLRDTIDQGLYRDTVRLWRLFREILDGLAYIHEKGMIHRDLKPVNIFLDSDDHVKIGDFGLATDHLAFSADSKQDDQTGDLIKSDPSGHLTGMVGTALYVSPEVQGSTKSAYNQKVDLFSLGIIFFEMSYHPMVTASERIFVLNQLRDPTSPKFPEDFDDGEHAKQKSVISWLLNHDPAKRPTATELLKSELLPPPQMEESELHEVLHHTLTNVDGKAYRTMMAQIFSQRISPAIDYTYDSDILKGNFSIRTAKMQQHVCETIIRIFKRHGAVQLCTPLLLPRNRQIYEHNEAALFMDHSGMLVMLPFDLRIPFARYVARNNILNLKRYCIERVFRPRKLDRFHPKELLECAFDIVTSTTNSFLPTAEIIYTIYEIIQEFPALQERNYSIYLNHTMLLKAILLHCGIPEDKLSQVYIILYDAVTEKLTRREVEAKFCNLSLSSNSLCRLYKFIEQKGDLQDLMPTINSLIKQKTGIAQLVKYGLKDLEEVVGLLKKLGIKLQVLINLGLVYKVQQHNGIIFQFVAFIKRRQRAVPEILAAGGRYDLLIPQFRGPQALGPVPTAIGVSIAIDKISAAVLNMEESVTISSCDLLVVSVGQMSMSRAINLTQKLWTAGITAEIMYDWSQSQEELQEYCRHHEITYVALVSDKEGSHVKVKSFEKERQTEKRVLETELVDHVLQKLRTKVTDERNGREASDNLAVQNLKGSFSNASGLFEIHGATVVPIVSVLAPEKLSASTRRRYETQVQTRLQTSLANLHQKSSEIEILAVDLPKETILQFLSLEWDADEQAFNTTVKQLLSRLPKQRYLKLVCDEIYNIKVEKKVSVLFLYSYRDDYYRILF

Structure (SMILES) | IC50 [1] [nM] | IC50 [nM]
CNC(=O)c1ncn2nc(-c3c(F)ccc(NS(=O)(=O)c4cc(Cl)cnc4C)c3Cl)ccc12 [Compound 139, 2-[2-chloro-3-(5-chloro-2-methylpyridine-3-sulfonamido)-6-fluorophenyl]-N-methylimidazo[1,5-b]pyridazine-5-carboxamide] | < 50 | –
CNC(=O)c1ncn2cc(-c3c(Cl)ccc(NS(=O)(=O)c4cc(Cl)cnc4OC)c3F)ncc12 [Compound 141, 6-(6-chloro-3-((5-chloro-2-methoxypyridine)-3-sulfonamido)-2-fluorophenyl)-N-methylimidazo[1,5-a]pyrazine-1-carboxamide] | < 50 | –
COc1ncc(F)cc1S(=O)(=O)Nc1ccc(Cl)c(-c2cn3cnc(-c4ncc[nH]4)c3cn2)c1F [Compound 142, N-[4-chloro-2-fluoro-3-[1-(1H-imidazol-2-yl)imidazo[1,5-a]pyrazin-6-yl]phenyl]-5-fluoro-2-methoxypyridine-3-sulfonamide] | < 50 | –
COc1ncc(Cl)cc1S(=O)(=O)Nc1ccc(F)c(-c2ccc3c(-c4nc(C)c(C)[nH]4)ncn3c2)c1F [Compound 143, 5-chloro-N-(3-(1-(4,5-dimethyl-1H-imidazol-2-yl)imidazo[1,5-a]pyridin-6-yl)-2,4-difluorophenyl)-2-methoxypyridine-3-sulfonamide] | < 50 | –
COc1ncc(F)cc1S(=O)(=O)Nc1ccc(F)c(-c2ccc3c(-c4nc(C)c(C)[nH]4)ncn3c2)c1F [Compound 144, N-(3-(1-(4,5-dimethyl-1H-imidazol-2-yl)imidazo[1,5-a]pyridin-6-yl)-2,4-difluorophenyl)-5-fluoro-2-methoxypyridine-3-sulfonamide] | < 50 | –
Cc1ncc(F)cc1S(=O)(=O)Nc1ccc(F)c(-c2ccc3c(-c4nc(C)c(C)[nH]4)ncn3c2)c1F [Compound 145, N-(3-(1-(4,5-dimethyl-1H-imidazol-2-yl)imidazo[1,5-a]pyridin-6-yl)-2,4-difluorophenyl)-5-fluoro-2-methylpyridine-3-sulfonamide] | < 50 | –
Cc1ncc(Cl)cc1S(=O)(=O)Nc1ccc(F)c(-c2ccc3c(-c4nc(C)c(C)[nH]4)ncn3c2)c1F [Compound 146, 5-chloro-N-(3-(1-(4,5-dimethyl-1H-imidazol-2-yl)imidazo[1,5-a]pyridin-6-yl)-2,4-difluorophenyl)-2-methylpyridine-3-sulfonamide] | < 50 | –
COc1ncc(Cl)cc1S(=O)(=O)Nc1ccc(F)c(-c2ccc3c(-c4nc5c([nH]4)CCCC5)ncn3c2)c1F [Compound 147, 5-chloro-N-(2,4-difluoro-3-(1-(4,5,6,7-tetrahydro-1H-benzo[d]imidazol-2-yl)imidazo[1,5-a]pyridin-6-yl)phenyl)-2-methoxypyridine-3-sulfonamide] | < 50 | –
COc1ncc(F)cc1S(=O)(=O)Nc1ccc(F)c(-c2ccc3c(-c4nc5c([nH]4)CCCC5)ncn3c2)c1F [Compound 148, N-(2,4-difluoro-3-(1-(4,5,6,7-tetrahydro-1H-benzo[d]imidazol-2-yl)imidazo[1,5-a]pyridin-6-yl)phenyl)-5-fluoro-2-methoxypyridine-3-sulfonamide] | < 50 | –
Cc1ncc(F)cc1S(=O)(=O)Nc1ccc(F)c(-c2ccc3c(-c4nc5c([nH]4)CCCC5)ncn3c2)c1F [Compound 149, N-(2,4-difluoro-3-(1-(4,5,6,7-tetrahydro-1H-benzo[d]imidazol-2-yl)imidazo[1,5-a]pyridin-6-yl)phenyl)-5-fluoro-2-methylpyridine-3-sulfonamide] | < 50 | –
Cc1ncc(Cl)cc1S(=O)(=O)Nc1ccc(F)c(-c2ccc3c(-c4nc5c([nH]4)CCCC5)ncn3c2)c1F [Compound 150, 5-chloro-N-(2,4-difluoro-3-(1-(4,5,6,7-tetrahydro-1H-benzo[d]imidazol-2-yl)imidazo[1,5-a]pyridin-6-yl)phenyl)-2-methylpyridine-3-sulfonamide] | < 50 | –
COc1ncc(F)cc1S(=O)(=O)Nc1ccc(F)c(-c2cn3cnc(-c4ncc[nH]4)c3cn2)c1Cl [Compound 151, N-[2-chloro-4-fluoro-3-[1-(1H-imidazol-2-yl)imidazo[1,5-a]pyrazin-6-yl]phenyl]-5-fluoro-2-methoxypyridine-3-sulfonamide] | < 50 | –
CNC(=O)c1ncn2c1CC[C@H](c1c(F)ccc(NS(=O)(=O)c3cc(F)cnc3OC)c1Cl)C2 [Compound 152-1, (6R)-6-[2-chloro-6-fluoro-3-(5-fluoro-2-methoxypyridine-3-sulfonamido)phenyl]-N-methyl-5H,6H,7H,8H-imidazo[1,5-a]pyridine-1-carboxamide] | – | 50 to 500
CNC(=O)c1ncn2c1CC[C@@H](c1c(F)ccc(NS(=O)(=O)c3cc(F)cnc3OC)c1Cl)C2 [Compound 152-2, (6S)-6-[2-chloro-6-fluoro-3-(5-fluoro-2-methoxypyridine-3-sulfonamido)phenyl]-N-methyl-5H,6H,7H,8H-imidazo[1,5-a]pyridine-1-carboxamide] | – | 50 to 500
COC(=O)c1ccc2nc(-c3ncn4cc(-c5c(F)ccc(NS(=O)(=O)c6cc(F)cnc6OC)c5F)ncc34)[nH]c2c1 [Compound 153, methyl 2-[6-[2,6-difluoro-3-(5-fluoro-2-methoxypyridine-3-sulfonamido)phenyl]imidazo[1,5-a]pyrazin-1-yl]-3H-1,3-benzodiazole-5-carboxylate] | < 50 | –
CNC(=O)c1ncn2c1CO[C@@H](c1c(F)ccc(NS(=O)(=O)c3cc(Cl)cnc3OC)c1F)C2 [Compound 154-1, (6S)-6-[3-(5-chloro-2-methoxypyridine-3-sulfonamido)-2,6-difluorophenyl]-N-methyl-5H,6H,8H-imidazo[4,3-c][1,4]oxazine-1-carboxamide] | – | 50 to 500
CNC(=O)c1ncn2c1CO[C@H](c1c(F)ccc(NS(=O)(=O)c3cc(Cl)cnc3OC)c1F)C2 [Compound 154-2, (6R)-6-[3-(5-chloro-2-methoxypyridine-3-sulfonamido)-2,6-difluorophenyl]-N-methyl-5H,6H,8H-imidazo[4,3-c][1,4]oxazine-1-carboxamide hydrochloride] | – | 50 to 500
COc1ncc(F)cc1S(=O)(=O)Nc1ccc(F)c(-c2cn3cnc(-c4nc(-c5ccccc5)c[nH]4)c3cn2)c1F [Compound 156, N-[2,4-difluoro-3-[1-(4-phenyl-1H-imidazol-2-yl)imidazo[1,5-a]pyrazin-6-yl]phenyl]-5-fluoro-2-methoxypyridine-3-sulfonamide] | < 50 | –
COc1ncc(Cl)cc1S(=O)(=O)Nc1ccc(F)c(-c2cn3cnc(C(=O)NC(C)C)c3cn2)c1F [Compound 157, 6-[3-(5-chloro-2-methoxypyridine-3-sulfonamido)-2,6-difluorophenyl]-N-isopropylimidazo[1,5-a]pyrazine-1-carboxamide] | < 50 | –
COc1ncc(Cl)cc1S(=O)(=O)Nc1ccc(F)c(-c2cn3cnc(C(=O)NCC(C)C)c3cn2)c1F [Compound 158, 6-[3-(5-chloro-2-methoxypyridine-3-sulfonamido)-2,6-difluorophenyl]-N-(2-methylpropyl)imidazo[1,5-a]pyrazine-1-carboxamide] | < 50 | –
COc1ncc(Cl)cc1S(=O)(=O)Nc1ccc(F)c(-c2cn3cnc(C(=O)NCC(F)(F)F)c3cn2)c1F [Compound 159, 6-[3-(5-chloro-2-methoxypyridine-3-sulfonamido)-2,6-difluorophenyl]-N-(2,2,2-trifluoroethyl)imidazo[1,5-a]pyrazine-1-carboxamide] | < 50 | –
CNC(=O)c1ncn2c(F)c(-c3c(F)ccc(NS(=O)(=O)c4cc(Cl)cnc4OC)c3F)ncc12 [Compound 160, 6-[3-(5-chloro-2-methoxypyridine-3-sulfonamido)-2,6-difluorophenyl]-5-fluoro-N-methylimidazo[1,5-a]pyrazine-1-carboxamide] | < 50 | –
COc1ncc(Cl)cc1S(=O)(=O)Nc1ccc(F)c(-c2cn3cnc(C(=O)NCCO)c3cn2)c1F [Compound 161, 6-[3-(5-chloro-2-methoxypyridine-3-sulfonamido)-2,6-difluorophenyl]-N-(2-hydroxyethyl)imidazo[1,5-a]pyrazine-1-carboxamide] | < 50 | –
COc1ncc(Cl)cc1S(=O)(=O)Nc1ccc(F)c(-c2cn3cnc(C(=O)Nc4cnn(C)c4)c3cn2)c1F [Compound 162, 6-[3-(5-chloro-2-methoxypyridine-3-sulfonamido)-2,6-difluorophenyl]-N-(1-methylpyrazol-4-yl)imidazo[1,5-a]pyrazine-1-carboxamide] | < 50 | –
COc1ncc(Cl)cc1S(=O)(=O)Nc1ccc(F)c(-c2cn3cnc(C(=O)NCC4CCOCC4)c3cn2)c1F [Compound 163, 6-[3-(5-chloro-2-methoxypyridine-3-sulfonamido)-2,6-difluorophenyl]-N-(oxan-4-ylmethyl)imidazo[1,5-a]pyrazine-1-carboxamide] | < 50 | –
COc1ncc(Cl)cc1S(=O)(=O)Nc1ccc(F)c(-c2cn3cnc(C(=O)NCCS(C)(=O)=O)c3cn2)c1F [Compound 164, 6-[3-(5-chloro-2-methoxypyridine-3-sulfonamido)-2,6-difluorophenyl]-N-(2-methanesulfonylethyl)imidazo[1,5-a]pyrazine-1-carboxamide] | < 50 | –
CCNC(=O)c1ncn2cc(-c3c(F)ccc(NS(=O)(=O)c4cc(Cl)cnc4OC)c3F)ncc12 [Compound 165, 6-[3-(5-chloro-2-methoxypyridine-3-sulfonamido)-2,6-difluorophenyl]-N-ethylimidazo[1,5-a]pyrazine-1-carboxamide] | < 50 | –
COc1ncc(Cl)cc1S(=O)(=O)Nc1ccc(F)c(-c2cn3cnc(C(=O)NCC4CC4)c3cn2)c1F [Compound 166, 6-[3-(5-chloro-2-methoxypyridine-3-sulfonamido)-2,6-difluorophenyl]-N-(cyclopropylmethyl)imidazo[1,5-a]pyrazine-1-carboxamide] | < 50 | –
CCOc1ncc(Cl)cc1S(=O)(=O)Nc1ccc(F)c(-c2cn3cnc(C(=O)NC)c3cn2)c1F [Compound 167, 6-[3-(5-chloro-2-ethoxypyridine-3-sulfonamido)-2,6-difluorophenyl]-N-methylimidazo[1,5-a]pyrazine-1-carboxamide] | – | 50 to 500
